Where two headings read alike, the source gives them in different places. Each block holds one compound with its values, some of them ahead of it.
Columns and labels:
[1] = UV-vis spectrophotometric titration for proton dissociation constants; type: physicochemical; details: for pKa: 60% (v/v) DMSO/H2O solvent mixture, 60% (v/v) DMSO/H2O, I = 0.10 M (KCl), 25 °C
Method: The pH-potentiometric titrations for the calibration of the electrode system were performed in 30% (v/v) and 60% (v/v) DMSO/H2O solvent mixtures using 0.10 M KCl background electrolyte at 25.0 ± 0.1 °C as described in our previous works.
A Thermo Evolution 220 spectrophotometer was used to record the UV-visible (UV-vis) spectra in the 260 to 750 nm window. The path length was varied between 2 and 50 mm. As a result of the limited solubility of the compounds in water, the spectrophotometric titrations were performed to determine the proton dissociation constants (pKa) of the ligand and its complex at 5 μM concentration using 5 cm path length. Due to the light sensitivity of the studied compounds, the samples were covered and were kept in the dark during the titrations. The starting sample volume was 50 mL. These titrations were performed in the pH range 2.0–12.5 (30% (v/v) DMSO/H2O) and 2.0–14.0 (60% (v/v) DMSO/H2O). Samples were deoxygenated by bubbling purified argon through them for approximately 10 min prior to the measurements and argon was also passed over the solutions during the spectrophotometric titrations. Calculation of the proton dissociation constants was performed with the computer program PSEQUAD [28].
Titrations were performed first in 30% (v/v) DMSO/H2O mixture due to the limited water solubility of the ligand. The sample was protected from light and, for a given portion of the sample, the UV-vis spectrum was recorded only once. […] Following this experiment, the titration was repeated in 60% (v/v) DMSO/H2O mixture (Figure 7), and no precipitation was found in the whole pH range (1.73−13.67) under this condition. However, only three deprotonation steps were observed, most probably because one of the deprotonation steps was already completed at the starting pH.
To elucidate the pKa assignment, 2-hydrazinobenzothiazole (considered as a fragment of the title ligand) was titrated under similar conditions to monitor the spectral changes during the deprotonation of the benzothiazole moiety.

[2] = test system: HCT-116, A375, CT-26, B16F10 and HaCaT cell lines; assay: Preliminary MTT antiproliferative screening on cell line panel; details: 20 and 40 μM, 48 h
Method: The MTT [32] and Guava ViaCount assays [33, 34] were used to assess cell viability in the absence (negative control) or presence of increasing concentrations of [Ni(HL)(acetate)], [Ru(HL)Cl(DMSO)] and 5-FU (positive control). Briefly, cells were plated at a concentration of 5 × 10^4 cells/mL in 96-well plates (200 μL/well) and cultured for 24 h in the culture conditions described above. Afterwards, supernatant was removed, and cells were incubated with [Ni(HL)(acetate)] and [Ru(HL)Cl(DMSO)] at concentrations ranging from 0.5 to 40 μM or from 0.5 to 100 μM for the 5-FU (positive control). Negative controls were cells maintained in complete culture medium. After 48 h, culture medium was discarded, cells were washed twice with PBS and 50 μL of MTT at 0.5 mg/mL in incomplete medium was added to all wells. After a 2 to 3 h incubation period at 37 °C and 5% CO2 environment, 100 μL DMSO was added to each well to solubilise the formazan crystals, and absorbance was measured at 570 nm using a microplate reader Model 680 (Bio-Rad, CA, USA). Between three to four independent experiments were carried out, with six replicates per condition. GraphPad Prism®8 (GraphPad Software, San Diego, CA, USA) was used to analyse cell proliferation and values were plotted and fit to a standard log dose-response curve. The IC50 values were calculated using Equation (2) [35]:log IC50 = log X1 + {[(Y1 − (Y0)/2)]/(Y1 − Y2)} × (log X2 − log X1)(2) where, Y0/2 is the half-cell density of the negative control; Y1 is the cell density above Y0/2; X1 is the concentration corresponding to Y1; Y2 is the cell density below Y0/2; X2 is the concentration corresponding to Y2. The IC50 was determined by linear interpolation between X1 and X2.
Thus, to evaluate the antiproliferative properties of the newly synthetised metal complexes, a preliminary screening was performed using human (HCT-116 and A375) and murine (CT-26 and B16F10) colon cancer and melanoma cell lines, respectively. […]

[3] = Shake-flask n-octanol/buffer distribution coefficient (D7.4); type: physicochemical; details: n-octanol/buffered aqueous solution, 25 °C, read-out: logD7.4
Method: The distribution coefficient values (D7.4) of the compounds were determined by the traditional shake-flask method in n-octanol/buffered aqueous solution at pH 7.40 (10 mM HEPES buffer, in the absence or in the presence of 0.10 M KCl) at 25.0 ± 0.2 °C. The samples and stock solutions were protected from light until the spectrophotometric concentration determination. The ligand and complex were dissolved at 150 and 100 μM concentrations in n-octanol, respectively. n-Octanol was presaturated with the HEPES solution with the given KCl concentration. The aqueous solution and n-octanol ratio was 9:1 (instead of the usual 1:1 ratio due to the high lipophilicity of the compounds). […] After separation, UV-vis spectra of the compounds in the n-octanol phase were recorded and compared to the spectra of the n-octanol stock solution. D7.4 values were calculated as in the following Equation (1): (1) D7.4=Aoct,1/Aoct,0−Aoct,1×Vwater phase/Voctanol phase where Aoct,0 and Aoct,1 are the absorbance values of the n-octanol phase before and after separation, respectively, Vwater phase and Voctanol phase are the volumes of the two phases.
The distribution coefficients (D7.4) for H2L and the Ru-complex (as model complex) were determined using HEPES buffer (pH = 7.4) for the aqueous phase. Distribution was measured in the absence and presence of 100 mM KCl. […]

[4] = test system: CT-26 colon cancer cells; assay: MTT antiproliferative assay, CT-26; type: cell-based, murine; details: CT-26, MTT, 48 h incubation
Method: (§1) Murine colon cancer CT-26 (ATCC® CRL-263™) cells were cultured in RPMI-1640, supplemented with 10% foetal bovine serum (FBS) and 100 IU/mL of penicillin and 100 μg/mL streptomycin (Gibco, Thermo Fisher Scientific, Waltham, MA, USA), hereafter designated as complete culture medium. Human colon cancer HCT-116 (ATCC® CCL-247™), human melanoma A375 (ATCC® CCL-1619™), murine melanoma B16F10 (ATCC® CCL-6475™) cells and human epidermal keratinocytes (HaCaT) were maintained in Dulbecco’s modified Eagle’s medium (DMEM) with high-glucose (4500 mg/L) (Sigma-Aldrich, St. Louis, MO, USA), supplemented with 10% FBS and 100 IU/mL of penicillin and 100 μg/mL streptomycin (Gibco, Thermo Fisher Scientific, Waltham, MA, USA), also designated as complete culture medium. The cell lines were maintained at 37 °C in a 5% CO2 environment and cells were trypsinised every 2–3 days when 80% confluence was reached.
(§2) Negative controls were cells maintained in complete culture medium.

[5] = test system: HCT-116 colon cancer cells; assay: MTT antiproliferative assay, HCT-116; type: cell-based, human; details: HCT-116, MTT, 48 h incubation
Method: as §1, §2

[6] = Light sensitivity in DMSO (UV-vis); type: physicochemical
Method: For the light sensitivity studies, DMSO solutions were prepared. The starting sample was separated equally for more portions, one was irradiated with diffuse light, while other portions were stored in the dark and measured only once.
The light sensitivity of H2L and its Ru-complex (as model metal compound) were tested by UV-vis spectrophotometry to further understand their behaviour. Samples were dissolved in DMSO and stored in the dark, while one portion was irradiated continuously by diffuse light. […] A relatively fast change is observed for the ligand in the first 1.5 h, and after that the spectrum has only minor changes (Figure 4A). […] Figure S16 depicts the spectral changes visible in Figure 4B. […] In the ligand, this may be due to a photoisomerisation process of the imine bond (Z/E isomers), which is quite common in hydrazones), but not in the Ru-complex, unless what is being observed in the complex solution is due to unbound ligand molecules.

[7] = target: bovine serum albumin (BSA) (Bos taurus, UniProt P02769); assay: Albumin binding by fluorescence quenching and circular dichroism; details: BSA ca. 20–25 μM, bands centred at ca. 360 nm, compound 5 to 70 μM
Sequence of bovine serum albumin (BSA) (P02769 25-607): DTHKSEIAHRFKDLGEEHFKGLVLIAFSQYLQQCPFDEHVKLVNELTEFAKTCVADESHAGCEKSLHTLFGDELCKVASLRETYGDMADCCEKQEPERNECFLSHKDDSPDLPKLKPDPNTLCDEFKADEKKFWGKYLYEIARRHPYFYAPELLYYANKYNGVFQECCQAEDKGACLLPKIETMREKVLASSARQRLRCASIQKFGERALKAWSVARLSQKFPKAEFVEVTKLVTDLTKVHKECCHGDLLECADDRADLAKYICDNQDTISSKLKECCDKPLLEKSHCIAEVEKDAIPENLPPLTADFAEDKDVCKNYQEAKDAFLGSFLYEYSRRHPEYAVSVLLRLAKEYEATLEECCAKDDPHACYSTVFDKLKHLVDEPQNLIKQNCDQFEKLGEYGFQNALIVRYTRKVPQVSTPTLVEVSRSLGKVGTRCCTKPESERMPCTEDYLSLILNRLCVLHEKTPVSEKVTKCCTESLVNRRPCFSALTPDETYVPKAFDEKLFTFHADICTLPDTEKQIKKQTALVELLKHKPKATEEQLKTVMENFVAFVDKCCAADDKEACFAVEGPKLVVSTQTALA
Method: The concentration of BSA in the experiments was ca. 1.5 μM (in aqueous PBS). The fluorescence emission spectra were recorded between 310 and 575 nm, with λex = 295 nm. Successive additions of the complexes were done directly to the cuvette (optical path 1 cm) and the fluorescence emission spectra were recorded for each one under the same conditions. Blank assays for each sample, consisting in solutions with the same concentration of complex and no BSA, were recorded and subtracted to the corresponding emission spectra containing the fluorophore. The UV-vis spectra of the sample solutions were used to correct the emission spectra, minimizing inner filter and reabsorption phenomena interference.
The concentration of BSA in the experiments was ca. 20–25 μM (in aqueous PBS). The circular dichroism (CD) spectra are an average of three scan accumulations, recorded between 300 and 500 nm, with bandwidth of 1 nm and response of 2 s, using a scanning speed of 100 nm/min. Successive additions of the complexes stock solutions in DMSO were done directly to the cuvette (1 cm) and the CD spectra were recorded under the same conditions after 10 min equilibration. Induced CD spectra were obtained as the CD spectrum of compound-BSA mixture minus the CD spectrum of BSA alone and are expressed as ellipticity in millidegrees.

[8] = test system: CT-26 cells; assay: Cell cycle analysis by PI flow cytometry, CT-26; type: cell-based, murine; details: CT-26, 24 h, sub-toxic concentrations
Method: (§3) To understand the potential effects of [Ni(HL)(acetate)] and [Ru(HL)Cl(DMSO)] on cell cycle progression, CT-26 and HCT-116 cells were used. Briefly, cells were plated at a density of 5 × 10^4 cells/mL in 6-well plates (2 mL) and allowed to grow for 24 h at 37 °C with 5% CO2. CT-26 cells were then incubated with [Ni(HL)(acetate)] or [Ru(HL)Cl(DMSO)] at concentrations of 5 and 10 μM or 10 and 20 μM, respectively. For HCT-116 cell line, the tested concentrations were 5 and 7.5 μM, and 7.5 and 12.5 μM for [Ni(HL)(acetate)] and [Ru(HL)Cl(DMSO)], respectively. The positive control group, 5-FU, was tested at 0.5 and 2 μM and 20 and 40 μM for CT-26 and HCT-116, respectively. Negative control group was constituted by cells in the presence of complete culture medium. After a 24 h incubation period, cells were collected by centrifugation at 850× g for 5 min at 4 °C, suspended in 500 µL of ice-cold PBS, and fixed with 500 µL ice-cold 80% ethanol (−20 °C), added drop-by-drop, under gentle mixing. Prior to the analysis, samples were kept at 4 °C for at least 16 h. […] The ModFit LT™ 5.0 software was used to analyse the data and the percentages of cells in each cell cycle phase was determined (Verity Software House, Topsham, ME, USA).

[9] = test system: HCT-116 cells; assay: Cell cycle analysis by PI flow cytometry, HCT-116; type: cell-based, human; details: HCT-116, 24 h, sub-toxic concentrations
Method: as §3

[10] = test system: HCT-116 cells; assay: Wound-healing migration assay, HCT-116; type: cell-based, human; details: HCT-116, 12.5 μM, at 22 h (control 50%)
Method: To assess cellular migration in the presence or absence of tested compounds, HCT-116 and CT-26 cells were plated at 1.5 × 10^5 and 3 × 10^5 cells/mL in a 12-well plate (1 mL/well) and were allowed to adhere and grow until reaching around 80–90% confluence. A sterile 10 μL pipette tip was used to wound the cell monolayer, followed by a washing step with PBS to remove debris. Then, cells were incubated with the tested compounds suspended in RPMI-1640 (CT-26) or DMEM media (HCT-116) supplemented with 2% FBS and 100 IU/mL of penicillin and 100 μg/mL streptomycin (Gibco, Thermo Fisher Scientific, Waltham, MA, USA), and hereafter designated as RPMI 2% and DMEM 2%, respectively. Under the above mentioned culture conditions, CT-26 cells were incubated with [Ni(HL)(acetate)] or [Ru(HL)Cl(DMSO)] at concentrations of 10 and 15 μM, respectively. […] The positive control, 5-FU, was tested at 1.5 and 40 μM for CT-26 and HCT-116, respectively. Negative control group was constituted by cells maintained in RPMI 2% (CT-26) and DMEM 2% (HCT-116). Images of the wound closure were taken beneath the stage of a Zeiss Axiovert 200 inverted microscope, using a 10× objective and a digital camera (CoolSNAP EZ, Photometrics, Huntington Beach, CA, USA) and recorded by the Metafluor Software at 0, 2, 4, 8, 18, 20 and 22 h following cell monolayer scratching (Molecular Devices, Sunnyvale, CA, USA). […]

pKa ([1]; read-out: pKa2): 3.35 ± 0.03
pKa ([1]; read-out: pKa3): 10.35 ± 0.03
pKa ([1]; read-out: pKa4): 12.86 ± 0.03
SMILES: NNc1nc2ccccc2s1 [2-Hydrazinobenzothiazole, 2-hydrazinobenzothiazole, reference compound]
antiproliferative / cytotoxic effect in preliminary screening [2]: no effect

logD at 4 h ([3]; pH 7.4, n-octanol/10 mM HEPES pH 7.4, 0 mM KCl): 2.8
logD at 4 h ([3]; pH 7.4, n-octanol/10 mM HEPES pH 7.4, 100 mM KCl): 3
pH range of precipitation ([1]; 30% (v/v) DMSO/H2O, 5 μM): 3.8−11.0
pKa ([1]; read-out: pKa2): 1.99 ± 0.03
pKa ([1]; read-out: pKa3): 9.09 ± 0.04
pKa ([1]; read-out: pKa4): 12.99 ± 0.04
IC50 ([4]; Mus musculus, CT26): 1.8 ± 0.4 µM
IC50 ([5]; Homo sapiens): 3 ± 0.8 µM
light sensitivity ([6]; irradiated continuously by diffuse light): strong light sensitivity
spectral changes in the dark ([6]; stored in the dark, 4 days of monitoring): only a small change
induced CD bands with BSA [7]: high intensity induced CD bands
SMILES: Oc1cccc2ccc(/C=N/Nc3nc4ccccc4s3)nc12 [H2L, (E)-2-((2-(benzo[d]thiazol-2-yl)Hydrazono)Methyl)Quinolin-8-ol]
antiproliferative / cytotoxic effect in preliminary screening [2]: high cytotoxicity

SMILES: O=Cc1ccc2cccc(O)c2n1 [HQ2CHO, 2-carbaldehyde-8-hydroxyquinoline]
antiproliferative / cytotoxic effect in preliminary screening [2]: cytotoxicity against the human melanoma and colon cancer cell lines

IC50 [4]: 11 ± 2.3 µM
IC50 [5]: 8.6 ± 2 µM
induced CD bands with BSA [7]: high intensity induced CD bands
SMILES: CC(=O)[O][Ni][O]c1cccc2ccc(C=NNc3nc4ccccc4s3)nc12 [[Ni(HL)(acetate)]]
cell cycle arrest [8]: arrested cell cycle at S phase
cell cycle arrest [9]: no such effect
maximum wound closure [10]: 32%

Reference: paper PMC9785144, “Metal Coordination and Biological Screening of a Schiff Base Derived from 8-Hydroxyquinoline and Benzothiazole” (Pharmaceutics, 2022)
